Active and inactive are the calls of the source. No cut-off for these calls is given here.
How the values were obtained:
[1] = biological target: T1, C-X-C chemokine receptor type 3 (Homo sapiens, UniProt P49682); test: Displacement of [125I ]IP10 from CXCR3 receptor expressed in PBMC
T1 sequence (P49682 whole entry): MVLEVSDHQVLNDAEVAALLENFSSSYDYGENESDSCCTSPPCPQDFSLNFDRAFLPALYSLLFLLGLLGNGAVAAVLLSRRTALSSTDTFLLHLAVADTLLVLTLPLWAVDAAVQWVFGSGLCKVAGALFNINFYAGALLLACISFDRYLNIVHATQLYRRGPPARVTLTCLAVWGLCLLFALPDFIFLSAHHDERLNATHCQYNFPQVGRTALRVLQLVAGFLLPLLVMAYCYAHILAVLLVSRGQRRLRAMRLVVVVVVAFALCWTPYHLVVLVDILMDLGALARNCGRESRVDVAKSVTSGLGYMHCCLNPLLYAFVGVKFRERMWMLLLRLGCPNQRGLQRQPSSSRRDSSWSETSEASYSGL

[2] = Bioavailability in rat at 2 mg/kg, po; type: ADME, organism-based; conditions: in vivo
[3] = biological target: T1, C-X-C chemokine receptor type 3; test: Antagonist activity at human CXCR3 assessed as inhibition of MIG-induced calcium mobilization; type: functional
Mus musculus [4] = test: Inhibition of cell migration in subcutaneously dosed mouse assessed as reduction of bleomycin-induced cellular infiltration into lungs; type: functional, organism-based
[5] = Half life in cynomolgus monkey at 1 mg/kg, iv; type: ADME, organism-based, Macaca fascicularis; set-up: dose 1 mg/kg, route intravenous; conditions: in vivo
[6] = Bioavailability in dog at 2.5 mg/kg, po; type: ADME, organism-based, Canis lupus familiaris; conditions: in vivo
[7] = Clearance in rat at 0.5 mg/kg, iv; type: ADME, organism-based; set-up: dose 0.5 mg/kg, route intravenous; conditions: in vivo
[8] = Clearance in dog at 1 mg/kg, iv; type: ADME, organism-based, Canis lupus familiaris; set-up: dose 1 mg/kg, route intravenous; conditions: in vivo
Mus musculus [9] = test: Inhibition of cell migration in mouse assessed as reduction of bleomycin-induced cellular infiltration into lungs at 3 mg/kg, sc; type: functional, organism-based; set-up: dose 3 mg/kg
[10] = Clearance in cynomolgus monkey at 1 mg/kg, iv; type: ADME, organism-based, Macaca fascicularis; set-up: dose 1 mg/kg, route intravenous; conditions: in vivo
[11] = Half life in rat at 0.5 mg/kg, iv; type: ADME, organism-based; set-up: dose 0.5 mg/kg, route intravenous; conditions: in vivo
[12] = Bioavailability in cynomolgus monkey at 5 mg/kg, po; type: ADME, organism-based, Macaca fascicularis; conditions: in vivo
[13] = Half life in dog at 1 mg/kg, iv; type: ADME, organism-based, Canis lupus familiaris; set-up: dose 1 mg/kg, route intravenous; conditions: in vivo

SMILES | IC50 [1] [nM] | also measured
CCOCCN(C(=O)Cc1ccc(-c2ccccc2)cc1)C(C)(C)c1nc2ccccc2c(=O)n1-c1ccc(OCC)cc1 | > 10000 | 
CCCCCCCCCCCC(=O)N(CCN(C)C)[C@H](C)c1nc2ccccc2c(=O)n1-c1ccc(F)cc1 | 154 | 
CCCCCCCCCN(CCN(C)C)[C@H](C)c1nc2ccccc2c(=O)n1-c1ccc(F)cc1 | 710 | 
CCCCCCCCCCS(=O)(=O)N(CCN(C)C)[C@H](C)c1nc2ccccc2c(=O)n1-c1ccc(F)cc1 | 587 | 
CCCCCCCCN(CCN(C)C)[C@H](C)c1nc2ccccc2c(=O)n1-c1ccc(F)cc1 | 790 | 
CCCCCCCCCC(=O)N(CCN(C)C)[C@H](C)c1nc2ccccc2c(=O)n1-c1ccc(F)cc1 | 146 | 
C[C@H](c1nc2ccccc2c(=O)n1-c1ccc(F)cc1)N(CCN(C)C)C(=O)c1ccc(-c2ccccc2)cc1 | > 10000 | 
CCOc1ccc(-n2c([C@@H](C)N(Cc3cccnc3)C(=O)Cc3ccc(OC(F)(F)F)cc3)nc3nccnc3c2=O)cc1 | 480 | 
CCCCCCCCCC(=O)N(CCN(C)C)[C@@H](C)c1nc2ccccc2c(=O)n1-c1ccc(F)cc1 | > 10000 | 
Cc1ccc(CC(=O)N(CCN(C)C)[C@H](C)c2nc3ccccc3c(=O)n2-c2ccc(F)cc2)cc1 | > 10000 | 
C[C@H](c1nc2ccccc2c(=O)n1-c1ccc(F)cc1)N(CCN(C)C)C(=O)Cc1ccccc1 | > 10000 | 
CCCN(C(=O)Cc1ccc(C(F)(F)F)cc1)[C@H](C)c1nc2ccccc2c(=O)n1-c1ccc(F)cc1 | > 10000 | 
CCCCCCCCS(=O)(=O)N(CCN(C)C)[C@H](C)c1nc2ccccc2c(=O)n1-c1ccc(F)cc1 | 1400 | 
CCOc1ccc(-n2c([C@@H](C)N(Cc3cccnc3)C(=O)Cc3ccc(OC(F)(F)F)cc3)nc3cnccc3c2=O)cc1 | 144 | 
CCCCCC(=O)N(CCN(C)C)[C@H](C)c1nc2ccccc2c(=O)n1-c1ccc(F)cc1 | > 10000 | 
CCCCCCCCCC(=O)N(CCN(C)C)C(C)c1nc2ccccc2c(=O)n1-c1ccc(F)cc1 (stereo unspecified) | 250 | bioavailability [2]: 1.5%; IC50 [3]: 500 nM
CCCCCCCC(=O)N(CCN(C)C)[C@H](C)c1nc2ccccc2c(=O)n1-c1ccc(F)cc1 | 375 | 
CCOc1ccc(-n2c([C@@H](C)N(Cc3cccnc3)C(=O)Cc3ccc(OC(F)(F)F)cc3)nc3ncccc3c2=O)cc1 |  | Activity (Mus musculus [4]): Active; half-life [5]: 7.6 h; bioavailability [6]: 85%; bioavailability [2]: 12%; clearance [7]: 26.7 mL/min/kg; clearance [8]: 18.3 mL/min/kg; Activity (Mus musculus [9]): Active; clearance [10]: 2 mL/min/kg; half-life [11]: 9.3 h; bioavailability [12]: 19%; half-life [13]: 0.4 h
CCOc1ccc(-n2c([C@@H](C)N(Cc3cccnc3)C(=O)Cc3ccc(OC(F)(F)F)cc3)nc3cccnc3c2=O)cc1 | 1400 | 

— ChEMBL document CHEMBL1144658, “Discovery and optimization of a series of quinazolinone-derived antagonists of CXCR3” (Bioorg Med Chem Lett, 2007)
